Source: ChEMBL document CHEMBL1136548, “1,3,4 Trisubstituted pyrrolidine CCR5 receptor antagonists bearing 4-aminoheterocycle substituted piperidine side chains” (Bioorg Med Chem Lett, 2003)
pIC50: −log10 of the molar value.

Key:
[1] = molecular target: T1, C-C chemokine receptor type 5 (Homo sapiens, UniProt P51681); test: Displacement inhibition of 125-I labeled MIP-alpha from CCR5 receptor expressed on CHO cell membranes
Target sequence in this assay (P51681 whole entry): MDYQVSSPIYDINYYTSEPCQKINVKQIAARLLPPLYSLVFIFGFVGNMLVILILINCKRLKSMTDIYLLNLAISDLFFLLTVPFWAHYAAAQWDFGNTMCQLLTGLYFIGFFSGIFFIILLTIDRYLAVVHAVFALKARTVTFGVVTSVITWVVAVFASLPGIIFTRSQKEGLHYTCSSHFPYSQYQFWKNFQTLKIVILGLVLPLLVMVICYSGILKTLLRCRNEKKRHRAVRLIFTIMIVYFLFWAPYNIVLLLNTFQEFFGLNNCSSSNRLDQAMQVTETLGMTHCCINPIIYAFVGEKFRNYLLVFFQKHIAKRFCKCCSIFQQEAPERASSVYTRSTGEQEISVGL

[2] = Bioavailability in rat; format: ADME, organism-based; conditions: in vivo
[3] = Pharmacokinetic parameter expressed as plasma clearance in rat; format: ADME, organism-based; conditions: read-out: Clp
[4] = Maximum plasma concentration was evaluated in rat; format: ADME, organism-based
[5] = Half life was evaluated in rat; format: ADME, organism-based; conditions: in vivo
[6] = molecular target: T1, C-C chemokine receptor type 5; test: Inhibition over 48 hr of BAL strain HIV infection of HeLa Magi cells expressing CCR5; Not active; format: functional, cell-based
Target sequence in this assay (P51681 whole entry): as above

[7] = molecular target: T1, C-C chemokine receptor type 5; test: Compound tested for inhibiting the displacement of 125-I labeled MIP-alpha from CCR5 receptor expressed on CHO cell membranes at 1000 nM
Target sequence in this assay (P51681 whole entry, looked up): as the sequence (P51681 whole entry) above

[8] = Tested for antiviral activity in peripheral blood mononuclear cells (PBMC); format: functional
[9] = molecular target: T1, C-C chemokine receptor type 5; test: Inhibition over 48 hr of BAL strain HIV infection of HeLa Magi cells expressing CCR5; format: functional, cell-based
Target sequence in this assay (P51681 whole entry, looked up): as the sequence (P51681 whole entry) above

[10] = molecular target: T1, C-C chemokine receptor type 5; test: Inhibition over 48 hr of BAL strain HIV infection of HeLa Magi cells expressing CCR5; not active; format: functional, cell-based
Target sequence in this assay (P51681 whole entry): as above

SMILES	pIC50 [1]	bioavailability [2] [%]	clearance [3] [mL/min/kg]	Cmax [4] [nM]	other results
CCCN(c1ccccn1)C1CCN(C[C@H]2CN(C(=O)C3CCC3)C[C@@H]2c2ccccc2)CC1	8.00				
CCCN(c1ccccn1)C1CCN(C[C@H]2CN(C(=O)N3CCCC3)C[C@@H]2c2ccccc2)CC1	8.05				
CCCN(c1ccccn1)C1CCN(C[C@H]2CN(C(=O)C3CCCCC3)C[C@@H]2c2ccccc2)CC1	7.92				
CCCN(c1nccc(OC)n1)C1CCN(C[C@H]2CN([C@H](CC3CCC3)C(=O)O)C[C@@H]2c2cccc(F)c2)CC1	9.10				
CCCN(c1ncc(C(F)(F)F)cn1)C1CCN(C[C@H]2CN([C@H](CC3CCC3)C(=O)O)C[C@@H]2c2cccc(F)c2)CC1	9.30	72	9	433	half-life [5]: 2.8 h
C=CCN(c1ccccc1)C1CCN(C[C@H]2CN(C(=O)C3CCCCC3)C[C@@H]2c2ccccc2)CC1	7.38				IC50 [6]: Not Active
CCCN(c1cncnc1)C1CCN(C[C@H]2CN([C@H](CC3CCC3)C(=O)O)C[C@@H]2c2cccc(F)c2)CC1	8.77	8	81	28	half-life [5]: 0.3 h
C=CCN(c1ccc(C(F)(F)F)cn1)C1CCN(C[C@H]2CN(C(=O)C3CCCCC3)C[C@@H]2c2ccccc2)CC1	7.68				
O=C(C1CCCCC1)N1C[C@H](CN2CCC(N(CC3CC3)c3ccccn3)CC2)[C@@H](c2ccccc2)C1	8.05				
CCN(c1ncccn1)C1CCN(C[C@H]2CN([C@H](CC3CCC3)C(=O)O)C[C@@H]2c2cccc(F)c2)CC1	8.82	33	26	210	half-life [5]: 1.1 h
C=CCN(c1cccnc1)C1CCN(C[C@H]2CN(C(=O)C3CCCCC3)C[C@@H]2c2ccccc2)CC1	7.64				
CCCN(c1ncccn1)C1CCN(C[C@H]2CN([C@H](CC3CCC3)C(=O)O)C[C@@H]2c2cccc(F)c2)CC1	8.74	29	28	256	half-life [5]: 1.1 h
CCCN(c1ncccn1)C1CCN(C[C@H]2CN([C@@H](C(=O)O)C3CCCCC3)C[C@@H]2c2ccccc2)CC1	8.18	8	17	49	
CCCN(c1ncc(F)cn1)C1CCN(C[C@H]2CN([C@H](CC3CCC3)C(=O)O)C[C@@H]2c2cccc(F)c2)CC1	9.40				
C=CCN(c1ncccn1)C1CCN(C[C@H]2CN(C(=O)C3CCCCC3)C[C@@H]2c2ccccc2)CC1	7.92				
CCCN(c1ccccn1)C1CCN(C[C@H]2CN([C@@H](C(=O)O)C3CCCCC3)C[C@@H]2c2ccccc2)CC1	8.41	20	53	53	
CCCCCCN(c1ccccn1)C1CCN(C[C@H]2CN(C(=O)C3CCCCC3)C[C@@H]2c2ccccc2)CC1					inhibition [7]: 64%
CCCN(c1cccnc1)C1CCN(C[C@H]2CN([C@@H](C(=O)O)C3CCCCC3)C[C@@H]2c2ccccc2)CC1	8.30	8	106	19	
CCCN(c1ncccn1)C1CCN(C[C@H]2CN([C@@H](C(=O)O)C3CCCCC3)C[C@@H]2c2cccc(F)c2)CC1	8.80	20	13	140	
C=CCN(C(=O)OCc1ccc([N+](=O)[O-])cc1)C1CCN(C[C@H]2CN(C(=O)c3ccccc3Cl)C[C@@H]2c2ccccc2)CC1					IC95 [8]: 31 nM; IC90 [9]: 1 nM
CCCN(c1ccncn1)C1CCN(C[C@H]2CN([C@H](CC3CCC3)C(=O)O)C[C@@H]2c2cccc(F)c2)CC1	8.92		90		half-life [5]: 0.9 h
C=CCN(c1ccccn1)C1CCN(C[C@H]2CN(C(=O)C3CCCCC3)C[C@@H]2c2ccccc2)CC1	8.22				
CCCN(c1nccc(C(F)(F)F)n1)C1CCN(C[C@H]2CN([C@H](CC3CCC3)C(=O)O)C[C@@H]2c2cccc(F)c2)CC1	8.92	25	13	177	half-life [5]: 1.5 h
O=C(O)[C@@H](CC1CCC1)N1C[C@H](CN2CCC(N(CC3CC3)c3ncccn3)CC2)[C@@H](c2cccc(F)c2)C1	8.96		28		half-life [5]: 0.7 h
C=CCN(c1ccncc1)C1CCN(C[C@H]2CN(C(=O)C3CCCCC3)C[C@@H]2c2ccccc2)CC1	7.18				IC50 [10]: Not Active
O=C(C1CCCCC1)N1C[C@H](CN2CCC(N(Cc3ccccc3)c3ccccn3)CC2)[C@@H](c2ccccc2)C1					inhibition [7]: 78%
CCCN(c1ccccn1)C1CCN(C[C@H]2CN(C(=O)c3ccccc3Cl)C[C@@H]2c2ccccc2)CC1	7.85				
